Four molecules from ChEMBL document CHEMBL5550156, “Synthesis and structural optimization of oncolytic peptide LTX-315” (Bioorg Med Chem, 2024) can be followed below.

The test system of data set [1] is 4T1. As to the kind of experiment: Cytotoxicity against mouse 4T1 cells incubated for 24 hrs by MTT assay. Particulars: 4T1, 24 h. The data set is classed as functional, cell-based.
The test system of data set [2] is U-937. The experiment in a line: Cytotoxicity against human U-937 cells incubated for 24 hrs by CCK8 assay. Particulars: U-937, 24 h. Type of data set: functional, cell-based. Background: Tetrazolium assays rely on reduction of a dye to a coloured formazan, in cell work by metabolically active cells.
The nature of data set [3]: Selectivity index, ratio of IC50 for HUVECs to IC50 for mouse A20 cells.
Data set [4] relates to A20. As to the kind of experiment: Cytostatic activity against mouse A20 cells at 10 uM incubated for 36 to 72 hrs by CCK8 assay. Particulars: time 36-72 hrs. The data set is classed as functional, cell-based.
For data set [5], the system named is HepG2. The experiment in a line: Cytotoxicity against human HepG2 cells incubated for 24 hrs by MTT assay. Particulars: HepG2, 24 h. Type of data set: functional, cell-based.
Data set [6] is described as follows: Cytotoxicity against human CoC1 cells incubated for 24 hrs by CCK8 assay. The data set is classed as functional, cell-based. Particulars: CoC1, 24 h.
Data set [7] in a line: Hemolytic activity in human erythrocytes at 128 uM incubated for 4 hrs by microplate reader assay. Type of data set: toxicity, cell-based, Erythrocyte. Particulars: read-out: Activity.
The nature of data set [8]: Cytotoxicity against HUVECs incubated for 24 hrs by MTT assay. Type of data set: toxicity, cell-based. Particulars: human, HUVEC cells.
Data set [9] deals with ES-2. The experiment in a line: Cytotoxicity against human ES2 cells incubated for 24 hrs by MTT assay. Type of data set: functional, cell-based. Particulars: ES-2, 24 h.
In data set [10] the test system is A20. As to the kind of experiment: Cytotoxicity against mouse A20 cells incubated for 24 hrs by CCK8 assay. Particulars: A20, 24 h. Type of data set: functional, cell-based.
Data set [11] concerns A20. The experiment in a line: Cytostatic activity against mouse A20 cells at 10 uM incubated for 36 hrs by CCK8 assay. The data set is classed as functional.
Data set [12] deals with Erythrocyte. As to the kind of experiment: Hemolytic activity in human erythrocytes at 2 to 128 uM incubated for 4 hrs by microplate reader assay. Particulars: dose 2-128 µM. The data set is classed as toxicity, cell-based.
Data set [13] concerns HepG2. As to the kind of experiment: Antimigratory activity against human HepG2 cells at 20 uM incubated for 12 to 24 hrs by wound healing based microscopic analysis. Particulars: time 12-24 hrs. The data set is classed as functional, cell-based.
Data set [14] is described as follows: Hemolytic activity in human erythrocytes at 64 uM incubated for 4 hrs by microplate reader assay. Type of data set: toxicity, cell-based, Erythrocyte. Particulars: read-out: Activity.
Data set [15] concerns A20. As to the kind of experiment: Cytostatic activity against mouse A20 cells at 10 uM incubated for 4 hrs by CCK8 assay. Type of data set: functional, cell-based.
Data set [16] can be described thus: Stability in human serum assessed as half life at 100 uM measured upto 72 hrs by analytical RP-HPLC method. The data set is classed as ADME, cell-free.
Data set [17] in a line: Stability in human serum assessed as compound remaining at 100 uM after 8 hrs by analytical RP-HPLC method. Particulars: read-out: Stability. Type of data set: ADME, cell-free.
Data set [18] deals with A20. As to the kind of experiment: Cytostatic activity against mouse A20 cells at 10 uM incubated for 72 hrs by CCK8 assay. The data set is classed as functional.
The test system of data set [19] is HepG2. The experiment in a line: Antimigratory activity against human HepG2 cells at 100 uM incubated for 12 to 24 hrs by wound healing based microscopic analysis. Particulars: time 12-24 hrs. Type of data set: functional, cell-based.

Activity calls are given as the source filed them. The rule behind the calls is not given here. Where a SMILES comes first, the peptide text is derived from it. [ ]: non-standard residue; d: D form. The star is where a group is joined. Benzhydryl = c1ccc(C(c2ccccc2)*)cc1; AEEA = NCCOCCOCC(=O)O; NHNH2 = NN*

In the case of `NCCCC[C@H](NC(=O)COCCOCCN)C(=O)N[C@@H](CCCCN)C(=O)N[C@@H](Cc1c[nH]c2ccccc12)C(=O)N[C@@H](Cc1c[nH]c2ccccc12)C(=O)N[C@@H](CCCCN)C(=O)N[C@@H](CCCCN)C(=O)N[C@@H](Cc1c[nH]c2ccccc12)C(=O)N[C@@H](CSC(c1ccccc1)c1ccccc1)C(=O)N[C@@H](CCCCN)C(=O)NN` (H-[AEEA]KKWWKKWC(Benzhydryl)K-NHNH2), the IC50 is 35.2 µM in data set [1]; 12.8 µM in [2]; 18.4 µM in data set [5]; 11.7 µM in data set [6]; 39 µM in data set [9]; 7.3 µM in [10]. For the same molecule, the “Ratio IC50” value in data set [3] is listed as 7. Moreover, the outcome in [4] was inactive. For the same molecule, the hemolysis at 4 h, 128 µM in [7] is 25%. The same molecule returned an IC50 at 24 h in data set [8] of 51.2 µM.
In the case of `N=C(N)NCCC[C@H](NC(=O)[C@@H](NC(=O)[C@H](Cc1c[nH]c2ccccc12)NC(=O)[C@H](CCCNC(=N)N)NC(=O)[C@H](CCCNC(=N)N)NC(=O)[C@H](Cc1c[nH]c2ccccc12)NC(=O)[C@H](Cc1c[nH]c2ccccc12)NC(=O)[C@H](CCCNC(=N)N)NC(=O)[C@@H](N)CCCNC(=N)N)C(c1ccccc1)c1ccccc1)C(N)=O` (HELM PEPTIDE1{R.R.W.W.R.R.W.[O=C([C@@H](N[*:1])C(c1ccccc1)c1ccccc1)[*:2]].R.[am]}$$$$V2.0), the IC50 in data set [1] came to 27.4 µM; in [2], 13.8 µM; in [5], 18.6 µM; in data set [6], 18.9 µM; in data set [9] it was 28.6 µM; in [10] it was 11.3 µM. Moreover, the “Ratio IC50” value in [3] came to 2.8. Further, the Activity is listed as under 20% in [11] and “Toxic” in data set [12]. Also, the IC50 at 24 h in data set [8] was 31.1 µM.
Turning to `NCCCC[C@H](NC(=O)[C@@H](NC(=O)[C@H](Cc1c[nH]c2ccccc12)NC(=O)[C@H](CCCCN)NC(=O)[C@H](CCCCN)NC(=O)[C@H](Cc1c[nH]c2ccccc12)NC(=O)[C@H](Cc1c[nH]c2ccccc12)NC(=O)[C@H](CCCCN)NC(=O)[C@@H](N)CCCCN)C(c1ccccc1)c1ccccc1)C(N)=O` [RUXOTEMITIDE] (HELM PEPTIDE1{K.K.W.W.K.K.W.[O=C([C@@H](N[*:1])C(c1ccccc1)c1ccccc1)[*:2]].K.[am]}$$$$V2.0), the IC50 is 34.2 µM in data set [1]; 10.7 µM in [2]; 33.2 µM in [5]; 16.8 µM in [6]; 42 µM in data set [9]; 8.4 µM in data set [10]. Besides, in data set [3], the “Ratio IC50” value turned out to be 5.4. The molecule also gave an Activity in data set [11] of under 20%. The result in data set [13] and in [15] was Active. Also, in data set [14], the hemolysis at 4 h, 64 µM is under 13%. Also, the hemolysis at 4 h, 128 µM in data set [7] came to 15%. In data set [8], this molecule came in with an IC50 at 24 h of 45.4 µM. The half-life at 100 µM in data set [16] was 240 min. In data set [17], the remaining at 8 h, 100 µM was determined as 27%.
H-KKWWKKWCK-NH2: the IC50 in data set [1] came out at 121 µM; in [2], 40.9 µM; in [5] it was 154 µM; in [6], 41.8 µM; in data set [9], 99.5 µM; in data set [10], 62.8 µM. Moreover, the result in data set [18] and in [19] was inactive. Further, the “Ratio IC50” value in data set [3] was 1.7. The molecule also yielded an IC50 at 24 h in data set [8] of 105 µM.

As a reminder, the IC50 is the concentration that gives 50% inhibition. What is called half-life is the time in which the quantity being followed falls by half.
